Measurements published in patent US5468756A, “Imidazonaphthyridine derivatives” (Kyowa Hakko Kogyo Co., Ltd., priority 1990, dated 1995).

Columns and labels:
[1] = tested on: carrageenin-induced paw edema; experiment: Effect on carrageenin-induced paw edema; type: in vivo, male Wistar rats; details: Rattus norvegicus, 3 hours after carrageenin, read-out: Suppression rate for paw swelling, carrageenin-induced edema; for inhibition in vivo at 100 mg/kg: p.o.; for inhibition in vivo at 50 mg/kg: po, 50 mg/kg P.O.
Protocol: a) Effect on carrageenin-induced paw edema
(§1) Male Wistar rats weighing 150 to 160 g (n=3-5) were used in the experiment. After the right hind paw volume was measured with the plethysmograph (TK-101; Unicom Co., Ltd.), the test compound (25, 50 or 100 mg/kg) was orally administered. After one hour, 0.1 ml of 1% carrageenin (λ-carrageenin; PICNIN-A®, Zushi Kagaku Co., Ltd.) was subcutaneously injected into the right hind paw footpad. Three hours after the injection of carrageenin, the right hind paw volume was measured and the swelling rate was determined by the following equation 1. [formula] Vt: the right hind paw volume measured 3 hours after the injection of carrageenin
(§2) Vo: the right hind paw volume measured prior to the injection of carrageenin
(§3) The suppression rate was calculated by the following equation 2. [formula] Swt: the swelling rate of the group administered with the test compound Swc: the swelling rate of the control group administered with physiological saline solution

[2] = tested on: zymosan-induced paw edema; experiment: Effect on zymosan-induced paw edema; type: in vivo, male Wistar rats; details: Rattus norvegicus, po; 25 mg/kg P.O.; read-out: Suppression rate for paw swelling, zymosan-induced edema
Protocol: as §1, §2, §3
b) Effect on zymosan-induced paw edema
The experiment was carried out in the same manner as in the carrageenin-induced paw edema test except that 1% zymosan (Zymosan A®; Sigma Chemical Co.) was used in place of 1% carrageenin and the right hind paw volume was measured […] the injection of the edema-inducing substance instead of 3 hours. The swelling rate and the suppression rate were calculated by equation 1 and equation 2, respectively.

[3] = tested on: passive Schultz-Dale reaction; experiment: Effect on passive Schultz-Dale reaction (broncho-dilative activity), sensitized tracheal strips contracted by antigen; parameters: species or system male Hartley guinea pigs; details: guinea pig tracheal zig-zag strips, 37° C., antigen egg white albumin 1 μg/ml; read-out: Passive Schultz-Dale reaction IC50 (concentration of 50% relaxation rate)
Protocol: d) Effect on passive Schultz-Dale reaction (broncho-dilative activity)
Male Hartley guinea pigs weighing 350 to 500 g were passively sensitized by intraperitoneal injection of rabbit anti-OA serum prepared in advance by the method of Koda et al. [Folia Pharmacol., Japon 66, 237, (1970)]. After 24 hours, the guinea pigs were stunned and exsanguinated, and then tracheae were removed. The zig-zag strips of the tracheae were prepared by the method of Emmerson and Mackay [J. Pharm. Pharmacol., 31, 798, (1979)]. The strips were suspended in Krebs-Henseleit solution at 37° C. under aeration of a mixed gas of 95% oxygen and 5% carbon dioxide, and equilibrated for one hour. Then, antigen (egg white albumin) was introduced in the solution (final concentration; 1 μg/ml), and the contraction was measured by isotonictransducer (TD-112s, made by Nihon Kohden K.K., Japan) and recorded on a recorder (Type 3066, made by Yokogawa-Hokushin Denki, K.K. Japan). After the contraction curves reached a plateau, the test compounds were successively added in order to get cumulative concentration-relaxation curves. The concentration of 50% relaxation rate (IC50) was calculated from the regression line, which was obtained from the cumulative concentration-relaxation curves.

[4] = tested on: platelet activating factor (PAF)-induced mortality; experiment: Inhibition effect on platelet activating factor (PAF)-induced mortality; type: in vivo, male dd mice; details: Mus musculus, po, PAF 40 μg/kg i.v., 3 h, read-out: Survival rate of test compound-administered group; for responders at 100 mg/kg: n = 10, control group survival 0-20%
Protocol: e) Inhibition effect on platelet activating factor (PAF)-induced mortality
The experiment was carried out by a minor modification of a known method [Br. J. Pharmacol., 79, 595 (1983)]. Groups each consisting of 10 male dd mice (weighing 28 to 32 g) were used, and 50 or 100 mg/kg of the test compound or a saline (control) was orally administered. One hour after the administration of test compound, 40 μg/kg of PAF (manufactured by Avanti Polar Lipids Co., Ltd.) was intravenously administered. Three hours after PAF injection, the mortality of the animals was observed.

ddY strain male mice = experiment: Acute toxicity (Minimum Lethal Dose); type: in vivo
Protocol: The test compound was orally and intraperitoneally administered to ddY strain male mice weighing 20 to 25 g. MLD (Minimum Lethal Dose) was determined by observing the mortality for […] after the administration.

| SMILES | inhibition in vivo at 100 mg/kg [1] [%] | inhibition in vivo at 25 mg/kg [2] [%] | IC50 [3] [µM] | responders at 100 mg/kg [4] [%] | inhibition in vivo at 50 mg/kg [1] [%] | MLD (Minimum Lethal Dose) i.p. (ddY strain male mice) [mg/kg] | MLD (Minimum Lethal Dose) p.o. (ddY strain male mice) [mg/kg] | responders at 50 mg/kg ([4]; 50 mg/kg p.o., n = 10, control group survival 0%) [%] |
| --- | --- | --- | --- | --- | --- | --- | --- | --- |
| COc1cccc(-n2c(=O)c3[nH]cnc3c3cccnc32)c1 [Compound 23, 5-(3-Methoxy)phenyl-3H-imidazo[4,5-c][1,8]naphthyridin-4(5H)-one] | 0 | 18.1 | > 10 | 10 | – | – | – | – |
| Cc1ccc(-n2c(=O)c3[nH]cnc3c3cccnc32)cc1 [Compound 24, 5-(4-Methyl)phenyl-3H-imidazo[4,5-c][1,8]naphthyridin-4(5H)-one] | – | – | > 10 | 40 | 0.3 | – | – | – |
| CC(C)n1cnc2c(=O)n(-c3ccccc3)c3ncccc3c21 [Compound 6, 1-Isopropyl-5-phenyl-1H-imidazo[4,5-c][1,8]naphthyridin-4(5H)-one] | 22 | – | > 10 | 70 | – | – | – | – |
| Cc1cccc(-n2c(=O)c3[nH]cnc3c3cccnc32)c1 [Compound 25, 5-(3-Methyl)phenyl-3H-imidazo[4,5-c][1,8]naphthyridin-4(5H)-one] | 13.8 | – | > 10 | 60 | – | – | – | – |
| CC(c1ccccc1)n1cnc2c3cccnc3n(-c3ccccc3)c(=O)c21 (stereo not drawn) [Compound 16, 3-(α-Methyl)benzyl-5-phenyl-3H-imidazo[4,5-c][1,8]naphthyridin-4(5H)-one] | 3.5 | – | > 10 | 0 | – | > 100 | > 300 | – |
| CCn1cnc2c(=O)n(-c3ccccc3)c3ncccc3c21 [Compound 5, 1-Ethyl-5-phenyl-1H-imidazo[4,5-c][1,8]naphthyridin-4(5H)-one] | 20.6 | – | > 10 | 80 | – | – | – | – |
| COc1ccc(Cn2cnc3c4cccnc4n(-c4ccccc4)c(=O)c32)cc1 [Compound 45, 3-(4-Methoxyphenyl)methyl-5-phenyl-3H-imidazo[4,5-c][1,8]naphthyridin-4(5H)-one] | 37.8 | 66.9 | – | 40 | – | – | – | – |
| O=C(O)Cn1cnc2c3cccnc3n(-c3ccccc3)c(=O)c21 [Compound 17, 3-Carboxymethyl-5-phenyl-3H-imidazo[4,5-c][1,8]naphthyridin-4(5H)-one] | 10.8 | – | > 10 | 30 | – | > 100 | > 300 | – |
| Cc1nc2c([nH]1)c(=O)n(-c1ccccc1)c1ncccc21 [Compound 18, 2-Methyl-5-phenyl-3H-imidazo[4,5-c][1,8]naphthyridin-4(5H)-one] | 23.7 | 26.7 | > 10 | 90 | – | – | – | – |
| CCCCn1c(=O)c2[nH]cnc2c2cccnc21 [Compound 27, 5-n-Butyl-3H-imidazo[4,5-c][1,8]naphthyridin-4(5H)-one] | 8.6 | – | > 10 | 60 | – | – | – | – |
| O=c1c2c(ncn2Cc2ccc([N+](=O)[O-])cc2)c2cccnc2n1-c1ccccc1 [Compound 42, 3-(4-Nitrophenyl)methyl-5-phenyl-3H-imidazo[4,5-c][1,8]naphthyridin-4(5H)-one] | 35.9 | 45.6 | – | – | – | – | – | 100 |
| COc1cccc(Cn2cnc3c4cccnc4n(-c4ccccc4)c(=O)c32)c1 [Compound 46, 3-(3-Methoxyphenyl)methyl-5-phenyl-3H-imidazo[4,5-c][1,8]naphthyridin-4(5H)-one] | – | 43.5 | – | 10 | – | – | – | – |
| CCCCCCn1cnc2c3cccnc3n(-c3ccccc3)c(=O)c21 [Compound 30, 3-Hexyl-5-phenyl-3H-imidazo[4,5-c][1,8]naphthyridin-4(5H)-one] | 48.5 | 33.5 | – | 90 | – | > 100 | > 300 | – |
| O=c1c2c(ncn2Cc2ccc(Cl)cc2)c2cccnc2n1-c1ccccc1 [Compound 40, 3-(4-Chlorophenyl)methyl-5-phenyl-3H-imidazo[4,5-c][1,8]naphthyridin-4(5H)-one] | 21.3 | 42.8 | – | 40 | – | – | – | – |
| O=c1c2c(ncn2Cc2cccc([N+](=O)[O-])c2)c2cccnc2n1-c1ccccc1 [Compound 47, 3-(3-Nitrophenyl)methyl-5-phenyl-3H-imidazo[4,5-c][1,8]naphthyridin-4(5H)-one] | 33.1 | 35.7 | – | 0 | – | > 100 | > 300 | – |
| O=c1c2[nH]c(S)nc2c2cccnc2n1-c1ccccc1 [Compound 20, 2-Mercapto-5-phenyl-3H-imidazo[4,5-c][1,8]naphthyridin-4(5H)-one] | 6.8 | – | > 10 | 30 | – | – | – | – |
| O=c1c2[nH]c(-c3ccccc3)nc2c2cccnc2n1-c1ccccc1 [Compound 19, 2,5-Diphenyl-3H-imidazo[4,5-c][1,8]naphthyridin-4(5H)-one] | 1.7 | – | > 10 | 60 | – | – | – | – |
| Cc1ccc(Cn2cnc3c4cccnc4n(-c4ccccc4)c(=O)c32)cc1 [Compound 43, 3-(4-Methylphenyl)methyl-5-phenyl-3H-imidazo[4,5-c][1,8]naphthyridin-4(5H)-one] | 39.2 | 56.2 | – | 70 | – | > 100 | > 300 | – |
| O=c1c2c(ncn2Cc2ccccc2)c2cccnc2n1-c1cccc(Cl)c1 [Compound 59, 5-(3-Chlorophenyl)-3-benzyl-3H-imidazo[4,5-c][1,8]naphthyridin-4(5H)-one] | – | 47.9 | – | 70 | 36.4 | > 100 | > 300 | – |
| Cc1cccc(-n2c(=O)c3c(ncn3Cc3ccccc3)c3cccnc32)c1 [Compound 58, 5-(3-Methylphenyl)-3-benzyl-3H-imidazo[4,5-c][1,8]naphthyridin-4(5H)-one] | – | 47 | – | 100 | 36.3 | > 100 | > 300 | – |
| O=c1c2[nH]cnc2c2cccnc2n1-c1cccc(Cl)c1 [Compound 26, 5-(3-Chloro)phenyl-3H-imidazo[4,5-c][1,8]naphthyridin-4(5H)-one] | 15.2 | – | > 10 | 90 | – | – | – | – |
| O=c1c2[nH]c(O)nc2c2cccnc2n1-c1ccccc1 [Compound 21, 2-Hydroxy-5-phenyl-3H-imidazo[4,5-c][1,8]naphthyridin-4(5H)-one] | 2.3 | – | 2 | 30 | – | > 100 | > 300 | – |
